# Reference: patent US11135263B2 (priority 2014, dated 2021)
# “Also recorded” adds a separate entry of the source. Like-named read-outs stand apart in the source and are kept apart here.
# Legend:
# [1] = tested on: avian influenza virus A/FPV/Bratislava/79 (H7N7); assay type: cell-based; settings: for virus titers: 18 hrs; for IV titers: 2 μM tamiflu vs Hepes, in absence or presence of S. aureus 6850
# [2] = tested on: influenza virus A/Puerto Rico/8/34 (H1N1); assay type: cell-based
# [3] = tested on: Staphylococcus aureus 6850; assay: mouse co-infection model, bacterial titers in lung homogenate; assay type: in vivo, Balb/C mice; settings: S. aureus super-infection day 3, lungs day 4
# Protocol: (§1) FIG. 17: Administration of U0126 leads to reduced bacterial titers in vivo independent of viral titers. 12 weeks old Balb/C mice were infected with 50 PFU of the influenza virus strain A/Puerto Rico/8/34 (PR8, H1N1) on day 0 (anesthesized with Isoflurane). Starting on day 1 mice were treated daily with i.p. injection of 30 mg/kg/day U0126 or solvent control (10% DMSO, 30% Cremophor EL, 60% PBS). On day 3 mice were infected with 5*10^7 CFU of Staphylococcus aureus 6850 under anesthesia with Isoflurane and directly treated with U0126 or solvent control. On day 4 lungs were removed and homogenized in PBS (0.1 g per 1000 μl PBS). For calculation of bacterial titers serial dilutions of the homogenate were plated on BHI agar. For determination of viral titers a standard plaque assay was performed. Statistical analysis was done using Mann-Whitney U Test (* p<0.05).
# (§2) 8 weeks old Balb/C mice (5 per group) were infected with 50 PFU of influenza virus strain A/Puerto Rico/8/34 (PR8, H1N1) on day 0 (anesthesized with Isoflurane). 6 hrs post viral infection mice were treated with oral administration of 10 mg/kg/day Cobimetinib or solvent control (10% DMSO, 5% Tween 20, 85% PBS). Treatment was then performed daily. On day 3 mice were infected with 5*10^7 CFU of Staphylococcus aureus 6850 under anesthesia with Isoflurane and 6 hrs later treated with Cobimetinib or solvent control. […]
# [4] = tested on: influenza virus strain A/Puerto Rico/8/34 (PR8, H1N1); assay: mouse co-infection model, viral titers in lung homogenate (plaque assay); assay type: in vivo, Balb/C mice; settings: lungs day 4
# Protocol: as §1, §2
# [5] = shown recently; cited from earlier work
# S. aureus 6850 [6] = assay type: cell-based, Staphylococcus aureus
# S. aureus USA300 = assay: bacterial internalisation (uptake) into A549 cells after 4 h preincubation; settings: 2.5 ng/ml TNF-alpha, stimulation 4 hours prior bacterial infection; MOI=5; 120 min
# S. aureus 6850 [7] = assay: as above; settings: 2.5 ng/ml TNF-alpha, stimulation 4 hours prior bacterial infection; 120 min
# [8] = tested on: Human lung epithelial cells (A549); assay type: cell-based
# ERK-1/2 phosphorylation = settings: 50 μM U0126; western blot, 8 hrs
# CCL3 = settings: 50 μM U0126; H3N2 (MOI=5) with or without S. aureus 6850 (MOI=50); 8 hrs; preliminary results
# S. aureus 6850 [9] = assay type: cell-based, Staphylococcus aureus; remark: listed apart in the source
# CCL5 = settings: 50 μM U0126; H3N2 (MOI=5) with or without S. aureus 6850 (MOI=50); 8 hrs; preliminary results
# [10] = […], U0126 50 μM, SB202190 10 μM or LG-ASA 5 mM vs solvent control
# [11] = […], U0126 50 μM, SB202190 10 μM or LG-ASA 5 mM vs solvent control, listed as SB02190
compound,measurement,setting,value
"O=C(NOCC1CC1)c1ccc(F)c(F)c1Nc1ccc(I)cc1Cl [CI-1040, 2-(2-chloro-4-iodophenylamino)-N-(cyclopropylmethoxy)-3,4-difluorobenzamide]",virus titers,"[1]; 10 μM CI-1040 vs solvent, singular and co-infection with S. aureus 6850 (MOI=0.1), MOI=0.01",reduction; also recorded: reduces
Oc1ccc(-c2nc(-c3ccncc3)c(-c3ccc(F)cc3)[nH]2)cc1 [SB202190],IV replication (IV titers),[2]; [10],reduces
same,viral titers in presence of S. aureus,[2]; [10],reduces
same,IV replication (IV titers),[2]; [11],inhibitory effects
same,viral titers in presence of S. aureus,[2]; [11],reduced
"O=C(c1ccc(F)c(F)c1Nc1ccc(I)cc1F)N1CC(O)([C@@H]2CCCCN2)C1 [Cobimetinib, [3,4-difluoro-2-[(2-fluoro-4-iodophenyl)amino]phenyl] [3-hydroxy-3-[(2S)-2-piperidinyl]-1-azetidinyl]methanone]",bacterial titers in vivo (lung),"[3]; Cobimetinib 10 mg/kg/day oral, daily",slight but clearly detectable reduction; also recorded: reduces
same,viral titers in vivo (lung),"[4]; Cobimetinib 10 mg/kg/day oral, daily from 6 hrs post viral infection",slight but clearly detectable reduction; also recorded: reduces
same,maximal tolerated dose,[5],30 mg/kg/day
CCOC(=O)C1=C[C@@H](OC(CC)CC)[C@H](NC(C)=O)[C@@H](N)C1 [Oseltamivir],IV titers,[1]; MOI=0.001,significantly reduced
same,IV titers,"[1]; MOI=0.001, listed as tamiflu",reduces
same,intracellular bacterial amounts (S. aureus load),S. aureus 6850 [6],rather increased; also recorded: enhances
TNF-α,bacterial uptake upon NFκB activation,S. aureus USA300,enhanced uptake
same,bacterial uptake upon NFκB activation,S. aureus 6850 [7],enhanced uptake
N#CC(=C(/N)Sc1ccccc1N)/C(C#N)=C(\N)Sc1ccccc1N [U0126],bacterial titers in vivo (lung),"[3]; U0126 30 mg/kg/day i.p. daily from day 1, 30 mg/kg/day",significantly reduced
same,cell damage of cell layer (cell morphology),[8],much less damaged
same,virus titers in vivo (lung),[4]; U0126 30 mg/kg/day i.p. daily from day 1,fail of reduced virus titers
same,IV replication (IV titers),[2],inhibitory effects; also recorded: reduces
same,viral titers in presence of S. aureus,[2],reduces
same,virus titers,"[1]; 50 μM U0126 vs solvent, co-infection with S. aureus 6850 (MOI=0.1)",reduced
same,virus titers,"[1]; 50 μM U0126 vs solvent, singular infection, MOI=0.01",significant reduction
same,viral titers in presence of S. aureus,"[1]; co-infection with S. aureus 6850 (MOI=0.5), virus MOI=0.001, 50 μM U0126 vs DMSO",reduces
same,IV replication (IV titers),"[1]; singular infection, MOI=0.001, 50 μM U0126 vs DMSO",inhibitory effects; also recorded: reduces
same,viral protein synthesis (PB1),viral protein (PB1),reduction
same,effect on MEK/ERK signalling (ERK1/2 phosphorylation),ERK-1/2 phosphorylation,inhibitory effect
same,IAV-induced CCL3 mRNA synthesis,CCL3,reduced
same,bacterial growth,S. aureus 6850 [9],inhibited; also recorded: reduced
same,bacterial titers without living cells,S. aureus 6850 [9],reduced
same,bacterial titers of internalized S. aureus 6850,S. aureus 6850 [6],only slightly decreased
same,intracellular amounts of S. aureus (S. aureus load),S. aureus 6850 [6],reduces
same,IAV-induced CCL5 mRNA synthesis,CCL5,further reduced
